This note sets out measurements from patent US20220153746A1, “NITROGEN OXIDE-DONATING PDE-5 AND/OR PDE-6 INHIBITOR COMPOUNDS, AND USES THEREOF” (ILDONG PHARMACEUTICAL CO., LTD., priority 2020, published 2022).

As usually defined, the CLint scaled is the rate of metabolic loss divided by the concentration. Low readings indicate slow turnover, high ones rapid turnover. As a reminder, the fraction unbound is the share of the substance not bound to proteins or other matrix. Read a high fraction unbound as much free substance.

Holding throughout (assay type): in vitro ADME
The nature of data set [1]: Metabolic stability in human liver microsomes. The following applies: 37° C., 0-60 minutes. How it is done:
This example illustrates the metabolic stability of selected compounds in human liver microsomes samples.
Both test and control compound solutions were prepared by diluting 5 μL of the respective stock solutions (10 mM in DMSO) containing either the test or control compound with 495 μL of acetonitrile (ACN) to give intermediate solutions with concentrations of 100 μM (99% ACN).
β-Nicotinamide adenine dinucleotide phosphate tetrasodium salt (NADPH.4Na) was purchased from BONTAC (cat. No. BT04). The NADPH working solution (10 unit/mL) was prepared by combining the appropriate amount of NADPH powder and a MgCl2 solution (10 mM) to give final concentration in the reaction system of 1 unit/mL.
The appropriate concentrations of the microsome working solutions were prepared in 100 mM potassium phosphate buffer.
Cold (4° C.) acetonitrile solution containing 200 ng/mL tolbutamide and 200 ng/mL labetalol (internal standard) was used as the stop solution.
Liver microsomes solution was diluted to 0.56 mg/mL in 100 mM phosphate buffer, and 445 μL of this solution was transferred into pre-warmed (10 minutes) “incubation” plates T60 and NCF60; the “incubation” plates T60 and NCF60 were pre-warmed for 10 minutes at 37° C. with constant shaking.
54 μL of the liver microsome solutions was transferred to the blank plate, followed by addition of 6 μL of the NAPDH cofactor solution and 180 μL of the quenching solution to the same blank plate.
5 μL of the compound working solution (100 μM concentration) was next added to into the “incubation” plates (T60 and NCF60) containing microsomes and mixed 3 times thoroughly. For the NCF60 plate, 50 μL of the buffer solution was added, mixed 3 times thoroughly, and incubated at 37° C. for 60 minutes under constant shaking.
In the “Quenching” plate at T0 (T=0 min), 180 μL of quenching solution and 6 μL of the NAPDH cofactor solution were added, and the resulting plate was chilled to prevent evaporation.
In the T60 plate, after it was thoroughly mixed, 54 μL of the mixture was immediately transferred to the “quenching” plate for the 0-minute time point, followed by addition of 44 μL of NAPDH cofactor solution to the incubation plate (T60). The resulting mixture was then incubated at 37° C. for 60 minutes under constant shaking. At time points of 5, 10, 20, 30 and 60 minutes, 180 μL of the quenching solution was added to the “quenching” plates, followed by serial transfer of 60 μL of the mixture (per time point) from the T60 plate to the “Quenching” plates.
For the NCF60 plates, 60 μL of the sample solution was transferred from the NCF60 incubation plate to the “Quenching” plate containing quenching solution at T=60 min time point. […]
On the technique in general: Microsomes from liver hold many membrane-bound enzymes, among them those of drug oxidation.

Data set [2] in a line: Plasma protein binding assay (equilibrium dialysis). The note with it: human plasma, dialysis 4 hours at 37° C. Here is the method: (§1) The dialysis device used in this example is a 96-well equilibrium dialysis plate (Cat #1006, HT Dialysis LLC, Gales Gerry, CT), and HTD 96 a/b dialysis membrane strips (Cat #1101, MWCO 12-14 kDa, HT Dialysis LLC). The dialysis device was assembled following the manufacturer's instructions.
(§2) The dialysis membrane strips were soaked in ultra-pure water at room temperature for approximately 1 hour. Each membrane strip containing 2 membranes was separated and soaked in 20:80 ethanol/water (v/v) for approximately 20 minutes, after which they were ready for used or were stored in the solution at 2-8° C. for up to a month. Prior to experiment, the membrane was rinsed and soaked for 20 minutes in ultra-pure water.
(§3) On the day of the experiment, the plasma was thawed by running under col tap water and centrifuged at 3220 rpm for 5 minutes to remove any clos. The pH value of the resulting plasma was checked. Only plasma with pH value with 7.0-8.0 could be used.
(§4) Both test and control compounds were dissolved in DMSO to achieve 10 mM stock solutions. Working solutions (400 μM) if test and control compounds were prepared by diluting 10μ of stock solutions with 240 μL of DMSO. Loading matrix solutions (2 μM) of both test and control compounds were prepared by diluting 5 μL of working solutions with 995 μL of blank matrix.
(§5) To prepare the loading matrix containing the test compound or control compounds, aliquots of either test compound working solutions or control compound working solution were spiked into blank matrix to achieve final test concentrations. The concentration of organic solvent in the final solutions were no more than 1% (normally 0.5%). The samples were mixture thoroughly before being used.
(§6) To prepare the time zero (T0) samples to be used for recovery determinations. 50 μL aliquots of loading matrix solution were transferred in triplicate to the sample collection plate. The samples were immediately matched with opposite blank buffer to obtain a final volume of 100 μL of 1:1 matrix/dialysis buffer (v/v) in each well. 500 μL of stop solution were added to these T0 samples. They were then stored at 2-8° C. pending further processes along with other post-dialysis samples.
(§7) To load the dialysis device, an aliquot of 150 μL of the loading matrix was transferred to the donor side of each dialysis well in triplicate, and 150 μL of the dialysis buffer was loaded to the received side of the well. The dialysis was placed in humidified incubator at 37° C. with 5% CO2 on a shaking platform that rated slowly (about 100 rpm) for 4 hours.
(§8) At the end of the dialysis, aliquots of 50 μL of samples were taken from both the buffer side and the matrix side of the dialysis deice. These samples were transferred into new 96-well plates (the sample collection plates). Each sample was mixed with an equal volume of opposite blank matrix (buffer or matrix) to reach a final volume of 100 μL of 1:1 matrix/dialysis buffer (v/v) in each well. All samples were further processed by adding 500 μL of stop solution containing internal standards. The mixture was vortexed and centrifuged at 4000 rpm for about 20 minutes. An aliquot of 100 μL of supernatant of all the samples were then removed for LC-MS/MS analysis.
(§9) The single blank samples were prepared by transferring 50 μL of blank matrix to a 96 well plate and adding 50 μL of blank PBS buffer to each well. The blank plasma must match the species of plasma used in the plasma side of the well. Then the matrix-matched samples were further processed by adding 500 μL of stop solution containing internal standards, following the same sample processing method as the dialysis samples.
On the technique in general: Equilibrium dialysis compares concentrations on both sides of a semipermeable membrane.

Data set [3] has as its system human plasma proteins. The description is as above. The note with it: 2 μM, dialysis 4 hours at 37° C. How it is done: as §1, §2, §3, §4, §5, §6, §7, §8, §9

`CCCc1nn(C)c2c(=O)[nH]c(-c3cc(S(=O)(=O)N4CC(CCCO)C4)ccc3OCC)nc12` [Compound 4, 5-(2-ethoxy-5-((3-(3-hydroxypropyl)azetidin-1-yl)sulfonyl)phenyl)-1-methyl-3-propyl-1,6-dihydro-7H-pyrazolo[4,3-d]pyrimidin-7-one] registered a CLint scaled at 1 µM in data set [1] of 357 mL/min/kg. Further, in data set [2], the unbound share (fraction unbound) at 4 h, 2 µM worked out at 0.0399. Moreover, the “% Bound” value in data set [3] is listed as 96.01%.

In turn, `CCCc1nn(C)c2c(=O)[nH]c(-c3cc(S(=O)(=O)N4CC(CCCO[N+](=O)[O-])C4)ccc3OCC)nc12` [Compound 18, 3-(1-((4-ethoxy-3-(1-methyl-7-oxo-3-propyl-6,7-dihydro-1H-pyrazolo[4,3-d]pyrimidin-5-yl)phenyl)sulfonyl)azetidin-3-yl)propyl nitrate] returned a CLint scaled at 1 µM in data set [1] of 934 mL/min/kg. The compound also displayed a fraction unbound at 4 h, 2 µM in data set [2] of 0.0048. For the same compound, the “% Bound” value in data set [3] was 99.52%.
